# According to PMC12102759 (Protein Science : A Publication of the Protein Society, 2025):
# Experiments:
# NSP3 UBl1 = NSP3 UBl1 (Severe acute respiratory syndrome coronavirus 2, UniProt P0DTC1); assay type: binding, SARS‐CoV‐2
# NSP3 SUD-M = NSP3 SUD-M (Severe acute respiratory syndrome coronavirus 2, UniProt P0DTC1); test: biochemical; assay type: binding, SARS‐CoV‐2
# NSP9 = NSP9 (Severe acute respiratory syndrome coronavirus 2, UniProt P0DTC1); assay type: binding, SARS‐CoV‐2
substance,measurement,setting,value
PSDEGALLDQLYLALR,"PSSM value, column E",NSP3 UBl1,0.9239
same,"PSSM value, column G",NSP3 UBl1,0.163
same,"PSSM value, column Q",NSP3 UBl1,0.8454
same,"PSSM value, column R",NSP3 UBl1,0.000271
same,"PSSM value, column S",NSP3 UBl1,0.00806
same,"PSSM value, column Y",NSP3 UBl1,0.04994
EPGHSPADYLRFQDLV,"DMS PSSM value, P (position 2)",NSP16,0
same,"DMS PSSM value, column A (position 7)",NSP16,0
same,"DMS PSSM value, column D (position 8)",NSP16,1
same,"DMS PSSM value, column D (position 14)",NSP16,1
same,"DMS PSSM value, column F (position 12)",NSP16,1
same,"DMS PSSM value, column G (position 3)",NSP16,0
same,"DMS PSSM value, column H (position 4)",NSP16,1
same,"DMS PSSM value, column L (position 10)",NSP16,0
same,"DMS PSSM value, column L (position 15)",NSP16,0
same,"DMS PSSM value, column P (position 6)",NSP16,0
same,"DMS PSSM value, column Q (position 13)",NSP16,1
same,"DMS PSSM value, column R (position 11)",NSP16,1
same,"DMS PSSM value, column S (position 5)",NSP16,0
same,"DMS PSSM value, column V (position 16)",NSP16,1
same,"DMS PSSM value, column Y (position 9)",NSP16,0
Ac-QFTEEALHFVLYGVTPY-NH2 [PRDM14 D201A],"effect of mutation on affinity, in words",NSP3 SUD-M,reduced affinity
NSSGLSIGTVFQSSSP,"PSSM value, position F11 of NSSGLSIGTVFQSSSP",NSP9,0.004607
same,"PSSM value, position I7 of NSSGLSIGTVFQSSSP",NSP9,0.3584
same,"PSSM value, position L5 of NSSGLSIGTVFQSSSP",NSP9,0.5284
same,"PSSM value, position P16 of NSSGLSIGTVFQSSSP",NSP9,0.0472
same,"PSSM value, position Q12 of NSSGLSIGTVFQSSSP",NSP9,0.008402
same,"PSSM value, position S2 of NSSGLSIGTVFQSSSP",NSP9,0.1505
same,"PSSM value, position S3 of NSSGLSIGTVFQSSSP",NSP9,0.01233
same,"PSSM value, position S6 of NSSGLSIGTVFQSSSP",NSP9,0.08225
same,"PSSM value, position S13 of NSSGLSIGTVFQSSSP",NSP9,0.05519
same,"PSSM value, position S14 of NSSGLSIGTVFQSSSP",NSP9,0.02572
same,"PSSM value, position S15 of NSSGLSIGTVFQSSSP",NSP9,0.009443
same,"PSSM value, position T9 of NSSGLSIGTVFQSSSP",NSP9,0.0231
same,"PSSM value, position V10 of NSSGLSIGTVFQSSSP",NSP9,0.01201
SGLSIGTVFQSSSPGG,"PSSM value, position F9 of SGLSIGTVFQSSSPGG",NSP9,0
same,"PSSM value, position I5 of SGLSIGTVFQSSSPGG",NSP9,1
same,"PSSM value, position L3 of SGLSIGTVFQSSSPGG",NSP9,0
same,"PSSM value, position P14 of SGLSIGTVFQSSSPGG",NSP9,0
same,"PSSM value, position Q10 of SGLSIGTVFQSSSPGG",NSP9,0
same,"PSSM value, position S1 of SGLSIGTVFQSSSPGG",NSP9,0
same,"PSSM value, position S4 of SGLSIGTVFQSSSPGG",NSP9,0
same,"PSSM value, position S11 of SGLSIGTVFQSSSPGG",NSP9,0
same,"PSSM value, position S12 of SGLSIGTVFQSSSPGG",NSP9,0
same,"PSSM value, position S13 of SGLSIGTVFQSSSPGG",NSP9,0
same,"PSSM value, position T7 of SGLSIGTVFQSSSPGG",NSP9,0
same,"PSSM value, position V8 of SGLSIGTVFQSSSPGG",NSP9,0
Ac-QFTEENLHFVLYGVTPY-NH2 [PRDM14 D201N],"effect of mutation on affinity, in words",NSP3 SUD-M,reduced affinity
DEGALLDQLYLALRNF,"PSSM value, column E",NSP3 UBl1,1
same,"PSSM value, column G",NSP3 UBl1,0.00255
same,"PSSM value, column N",NSP3 UBl1,0.0003155
same,"PSSM value, column Q",NSP3 UBl1,0.001034
same,"PSSM value, column R",NSP3 UBl1,0.0009557
same,"PSSM value, column Y",NSP3 UBl1,0.8625
GHSPADYLRFQDLVLR,"DMS PSSM value, P (position 4)",NSP16,0.03004
same,"DMS PSSM value, column A (position 5)",NSP16,0.5801
same,"DMS PSSM value, column D (position 6)",NSP16,0.9437
same,"DMS PSSM value, column D (position 12)",NSP16,0.8934
same,"DMS PSSM value, column F (position 10)",NSP16,1
same,"DMS PSSM value, column G (position 1)",NSP16,0.4974
same,"DMS PSSM value, column H (position 2)",NSP16,0.3305
same,"DMS PSSM value, column L (position 8)",NSP16,0.965
same,"DMS PSSM value, column L (position 13)",NSP16,0.8766
same,"DMS PSSM value, column L (position 15)",NSP16,0.9948
same,"DMS PSSM value, column Q (position 11)",NSP16,1
same,"DMS PSSM value, column R (position 9)",NSP16,0.07816
same,"DMS PSSM value, column S (position 3)",NSP16,0.3438
same,"DMS PSSM value, column V (position 14)",NSP16,0.9023
same,"DMS PSSM value, column Y (position 7)",NSP16,1
